“Also recorded” adds a separate entry of the source.
Tests used:
Format in all cases: physicochemical
[1] = Aqueous solubility: slurries in deionised water, HPLC; settings: slurry in deionised water shaken ca. 24 hours; for aqueous solubility: assessment in words
Method: Slurries of all each polymorphic form were created in deionised water and shaken for ca. 24 hours. The resulting solid was then analysed by HPLC to determine the concentration of material dissolved.

[2] = Dynamic vapour sorption (DVS) with post DVS XRPD; settings: for DVS water uptake: between 20 and 70% RH
Method: For dynamic vapour sorption (DVS), approximately 10 mg of sample was placed into a wire mesh vapour sorption balance pan and loaded into a DVS-1 dynamic vapour sorption balance by Surface Measurement Systems. The sample was subjected to a ramping profile from 20-90% relative humidity (RH) at 10% increments, maintaining the sample at each step until a stable weight had been achieved (99.5% step completion). After completion of the sorption cycle, the sample was dried using the same procedure, but all the way down to 0% RH and finally taken back to the starting point of 20% RH. The weight change during the sorption/desorption cycles were plotted, allowing for the hygroscopic nature of the sample to be determined.

[3] = Stability at 40° C./75% RH for 1 week and 2 weeks (XRPD and HPLC); settings: open container
Method: Samples of each form were exposed to an environment of 40° C./75% RH for 1 week and 2 week periods to determine stability. Resulting solids were analysed by XRPD and HPLC to establish if any changes had occurred.

[4] = XRPD after heating or drying (solid form conversion)
Method: X-ray powder diffraction (XRPD) analysis was carried out on a Siemens D5000, scanning the samples between 3 and 30 or 50° 2-theta. For samples <100 mg, ca. 5-10 mg of sample was gently compressed onto a glass slide which fitted into the sample holder. For samples >100 mg, ca. 100 mg of sample was gently compressed into a plastic sample holder, so that the sample surface was smooth and just above the level of the sample holder. Measurements were made as follows: In order to determine the relationship between Forms A and B, a sample of Form B was heated to 120° C. and then XRPD analysis was carried out. […] To determine whether Form C remains the same after losing the solvent present, a sample of Form C was heated to 120° C. (i.e., just past the temperature at which the solvent is removed) and then XRPD analysis was carried out. […] In order to determine whether Form E remains the same after losing the solvent present, a sample of Form E was heated to 120° C. (i.e., just past the temperature at which the solvent is lost) and then XRPD analysis was carried out. […] In order to determine whether Form F remains the same after losing the solvent present, a sample of Form F was heated to 120° C. (i.e., just past the temperature at which the solvent is lost) and then XRPD analysis was carried out. […] To examine whether Form H changes to Form A after heating to 115° C. (point after the solvent loss), the Form H material was heated to 115° C. and XRPD analysis and DSC analysis were then carried out. […] The DSC analysis (FIG. 49) indicated overlapping endotherms between ca. 115-135° C., followed by an exotherm at peak 143.9° C., likely indicating a polymorphic transition. A final endotherm was present at onset 202.7° C. (peak 206.6° C.) corresponding with the Form A melt.

[5] = 7 day stability studies of Form I at 25° C., 80° C., 40° C./75% RH (open and closed)
Method: Approximately 15 mg of Form I was placed separately into vials and then exposed to 25° C., 80° C. and 40° C./75% RH environments (open and closed vials) for 1 week to determine stability. The resulting solids were analysed by XRPD and HPLC to establish if any changes had occurred. Results are presented in Tables 2 and 3 and FIGS. 62 and 63.

[6] = Thermodynamic solubility studies at various pH; settings: for solubility at 24 h: thermodynamic from solid
Method: Slurries of Form I were created in media of various pH (pH 1; pH 3; pH 4.5 and pH 6.6) and shaken for ca. 24 hours. After 24 hours, the slurries were filtered and the solution analysed by HPLC in order to determine the solubility at the various pH levels. For the buffer solutions, KCl/HCl was used for pH 1 and citrate/phosphate combinations for pH 3, 4.5 and 6.6 (10 mM). The pH of the solutions was also measured prior to HPLC analysis. XRPD analysis was carried out on the remaining solids after 24 hours of shaking.

[7] = ambient under vacuum 7 days, then 2 days at 40° C.
[8] = closed container, 40° C./75% RH

C=CC(=O)Nc1cccc(Nc2nc(Nc3ccc(N4CCN(C(C)=O)CC4)cc3OC)ncc2C(F)(F)F)c1 [Form B, N-(3-(2-(4-(4-acetylpiperazin-1-yl)-2-methoxyphenylamino)-5-(trifluoromethyl)pyrimidin-4-ylamino)phenyl)acrylamide]
detection by HPLC analysis for the aqueous solubility [1]: could not be detected | aqueous solubility [1]: poor | Post DVS XRPD (solid form) [2]: remained Form B | hygroscopicity (DVS) [2]: non-hygroscopic | DVS water uptake [2]: 0.74% | HPLC purity after storage ([3]; 1 week): ca. 96.8% | XRPD analysis after storage ([3]; 1 week): predominantly amorphous | HPLC purity after storage ([3]; 2 week): ca. 95.9% | XRPD analysis after storage ([3]; 2 week): predominantly amorphous | XRPD after heating ([4]; heated to 120° C.): mixture of Form B and Form A | XRPD after heating ([4]; heated to 160° C.): converted predominantly to Form A

C=CC(=O)Nc1cccc(Nc2nc(Nc3ccc(N4CCN(C(C)=O)CC4)cc3OC)ncc2C(F)(F)F)c1 [Form C, N-(3-(2-(4-(4-acetylpiperazin-1-yl)-2-methoxyphenylamino)-5-(trifluoromethyl)pyrimidin-4-ylamino)phenyl)acrylamide]
detection by HPLC analysis for the aqueous solubility [1]: could not be detected | aqueous solubility [1]: poor | DVS analysis observation [2]: contain solvent, which is lost as the relative humidity is increased | Post DVS XRPD (solid form) [2]: converted to Form A | HPLC purity after storage ([3]; 1 week): ca. 97.1% | XRPD analysis after storage ([3]; 1 week): converted to Form A with some loss in crystallinity | HPLC purity after storage ([3]; 2 week): ca. 96.8% | XRPD analysis after storage ([3]; 2 week): poorly crystalline with the peaks present corresponding with Form A | XRPD after drying [4, 7]: some loss in crystallinity and converted to Form A | XRPD after heating ([4]; heated to 120° C.): converted to Form A

C=CC(=O)Nc1cccc(Nc2nc(Nc3ccc(N4CCN(C(C)=O)CC4)cc3OC)ncc2C(F)(F)F)c1 [Form D, N-(3-(2-(4-(4-acetylpiperazin-1-yl)-2-methoxyphenylamino)-5-(trifluoromethyl)pyrimidin-4-ylamino)phenyl)acrylamide]
detection by HPLC analysis for the aqueous solubility [1]: could not be detected | aqueous solubility [1]: extremely poor | DVS analysis observation [2]: contain solvent which is lost as the relative humidity is increased | Post DVS XRPD (solid form) [2]: converted completely to Form B | HPLC purity after storage ([3]; 1 week): ca. 96.5% | XRPD analysis after storage ([3]; 1 week): converted completely to Form B with some loss in crystallinity | HPLC purity after storage ([3]; 2 week): ca. 95.5% | XRPD analysis after storage ([3]; 2 week): poorly crystalline with the peaks present corresponding with Form B

C=CC(=O)Nc1cccc(Nc2nc(Nc3ccc(N4CCN(C(C)=O)CC4)cc3OC)ncc2C(F)(F)F)c1 [Form E, N-(3-(2-(4-(4-acetylpiperazin-1-yl)-2-methoxyphenylamino)-5-(trifluoromethyl)pyrimidin-4-ylamino)phenyl)acrylamide]
detection by HPLC analysis for the aqueous solubility [1]: could not be detected | aqueous solubility [1]: extremely poor | Post DVS XRPD (solid form) [2]: converted to Form A | DVS water uptake [2]: 0.25% | HPLC purity after storage ([3]; 1 week): ca. 97.7% | XRPD analysis after storage ([3]; 1 week): predominantly amorphous with visible peaks present corresponding with Form A | HPLC purity after storage ([3]; 2 week): ca. 97.3% | XRPD analysis after storage ([3]; 2 week): predominantly amorphous with visible peaks present corresponding with Form A | XRPD after drying [4, 7]: lost some crystallinity and converted to Form A | XRPD after heating ([4]; heated to 120° C.): converted to Form A

C=CC(=O)Nc1cccc(Nc2nc(Nc3ccc(N4CCN(C(C)=O)CC4)cc3OC)ncc2C(F)(F)F)c1 [Form F, N-(3-(2-(4-(4-acetylpiperazin-1-yl)-2-methoxyphenylamino)-5-(trifluoromethyl)pyrimidin-4-ylamino)phenyl)acrylamide]
detection by HPLC analysis for the aqueous solubility [1]: could not be detected; also recorded: below the limit of quantification | aqueous solubility [1]: poor | DVS analysis observation [2]: contain solvent, which is lost as the relative humidity is increased | Post DVS XRPD (solid form) [2]: converted predominantly to Form A (traces of Form F remaining) | HPLC purity after storage ([3]; 1 week): ca. 96.8% | XRPD analysis after storage ([3]; 1 week): converted to Form A, with some loss in crystallinity | HPLC purity after storage ([3]; 2 week): ca. 96.3% | XRPD analysis after storage ([3]; 2 week): partially crystalline with peaks present corresponding with Form A | XRPD after drying [4, 7]: lost some crystallinity and converted predominantly to Form A | XRPD after heating ([4]; heated to 120° C.): converted predominantly to Form A

C=CC(=O)Nc1cccc(Nc2nc(Nc3ccc(N4CCN(C(C)=O)CC4)cc3OC)ncc2C(F)(F)F)c1 [Form G, N-(3-(2-(4-(4-acetylpiperazin-1-yl)-2-methoxyphenylamino)-5-(trifluoromethyl)pyrimidin-4-ylamino)phenyl)acrylamide]
aqueous solubility [1]: poor | DVS analysis observation [2]: contain significant amounts of solvent that are lost as the relative humidity is increased | Post DVS XRPD (solid form) [2]: converted to Form A | HPLC purity after storage ([3]; 1 week): ca. 96.8% | XRPD analysis after storage ([3]; 1 week): converted predominantly to Form A, with some loss in crystallinity | HPLC purity after storage ([3]; 2 week): ca. 96.2% | XRPD analysis after storage ([3]; 2 week): converted predominantly to Form A, with some loss in crystallinity | XRPD after drying ([4]; 80° C. for 4 days): converted to Form A | XRPD after drying [4, 7]: converted to Form A

C=CC(=O)Nc1cccc(Nc2nc(Nc3ccc(N4CCN(C(C)=O)CC4)cc3OC)ncc2C(F)(F)F)c1 [Form I, N-(3-(2-(4-(4-acetylpiperazin-1-yl)-2-methoxyphenylamino)-5-(trifluoromethyl)pyrimidin-4-ylamino)phenyl)acrylamide]
Post DVS XRPD (solid form) [2]: remained as Form I | hygroscopicity (DVS) [2]: relatively non-hygroscopic | DVS mass uptake ([2]; Cycle 1, sorption 20-90% RH): ca. 0.66% | DVS rapid mass loss ([2]; Cycle 2, desorption, between 10-0% RH): ca. 2.7% | DVS mass decrease ([2]; Cycle 2, desorption, between 90-10% RH): ca. 1.2% | DVS moisture uptake ([2]; Cycle 3, sorption, between 0-20% RH): ca. 2.8% | Purity after 1 week ([5]; closed container, 25° C.): 99.4% | XRPD Analysis after 1 week ([5]; closed container, 25° C.): Form I | Purity after 1 week [5, 8]: 99.3% | XRPD Analysis after 1 week [5, 8]: Form I; also recorded: (some loss in crystallinity) | Purity after 1 week ([5]; closed container, 80° C.): 99.2% | XRPD Analysis after 1 week ([5]; closed container, 80° C.): Form I; also recorded: (some loss in crystallinity) | Purity after 1 week ([5]; open container, 25° C.): 98.7% | XRPD Analysis after 1 week ([5]; open container, 25° C.): Form I | Purity after 1 week ([5]; open container, 40° C./75% RH): 98.9% | XRPD Analysis after 1 week ([5]; open container, 40° C./75% RH): Form I | Purity after 1 week ([5]; open container, 80° C.): 98.5% | XRPD Analysis after 1 week ([5]; open container, 80° C.): Form I; also recorded: (some loss in crystallinity) | solubility at 24 h ([6]; aqueous buffer, buffer pH 3 (citrate/phosphate), pH prior to analysis 2.26, ca. 24 hours): 23 µg/mL | solubility at 24 h ([6]; aqueous buffer, buffer pH 4.5 (citrate/phosphate), pH prior to analysis 3.38, ca. 24 hours): 2 µg/mL | Solubility ([6]; buffer pH 6.6 (citrate/phosphate), pH prior to analysis 5.04, ca. 24 hours): Not detected | XRPD of solids remaining after thermodynamic solubility experiment ([6]; pH 1, after 24 hours): mixture of Form I and possibly the HCl salt | XRPD of solids remaining after thermodynamic solubility experiment ([6]; pH 6.6, 4.5 and 3.0, after 24 hours): remained as Form I | solubility at 24 h ([6]; simulated gastric fluid, buffer pH 1 (KCl/HCl), pH prior to analysis 0.95, ca. 24 hours): 3270 µg/mL
